Reference: ChEMBL document CHEMBL1130600, “Tropane-based amino acids for peptide structure-function studies: inhibitors of platelet aggregation” (Bioorg Med Chem Lett, 1998)

Species on record: Homo sapiens
Assay: Compound was tested for its ability to inhibit the thrombin-induced platelet aggregation in washed human platelets
Type: functional

Structure (SMILES) | IC50
NC(N)=NCCCC(N)C(=O)N1C2CCC(C(=O)NC(CC(=O)O)C(=O)NC(CO)C(=O)O)C1CC2 (stereo unspecified) | 23 µM
NC(N)=NCCCC(N)C(=O)N1C2CC=C(C(=O)NC(CC(=O)O)C(=O)NC(CO)C(=O)O)C1CC2 (stereo unspecified) | 270 µM
CC(=O)NC(CCCCN)C(=O)N1CCCC(C(=O)NCCC(=O)O)C1 (stereo unspecified) | 60 µM
CC(=O)NC(CCCCN)C(=O)N1C2CCC1C(C(=O)NCCC(=O)O)C2 (stereo unspecified) | > 500 µM
CC(=O)N[C@H](CCCCN)C(=O)N1C2CC=C(C(=O)NCCC(=O)O)C1CC2 (stereo partly specified) | 160 µM
CC(=O)NC(CCCCN)C(=O)N1C2CC=C(C(=O)NCCC(=O)O)C1CC2 (stereo unspecified) | > 500 µM
CC(=O)NC(CCCCN)C(=O)N1C2CCC(C(=O)NCCC(=O)O)C1CC2 (stereo unspecified) | 370 µM
CC(=O)N[C@H](CCCCN)C(=O)N1CCCC(C(=O)NCCC(=O)O)C1 (stereo partly specified) | 20 µM
CC(=O)N[C@H](CCCCN)C(=O)N1C2CCC1C(C(=O)NCCC(=O)O)C2 (stereo partly specified) | > 500 µM
NC(N)=NCCCC(N)C(=O)N1C2CCC1C(C(=O)NC(CC(=O)O)C(=O)NC(CO)C(=O)O)C2 (stereo unspecified) | 402 µM
CC(=O)N[C@H](CCCCN)C(=O)N1C2CCC(C(=O)NCCC(=O)O)C1CC2 (stereo partly specified) | 30 µM
